From ChEMBL document CHEMBL1130200, “Discovery of 3-aminobenzyloxycarbonyl as an N-terminal group conferring high affinity to the minimal phosphopeptide sequence recognized by the Grb2-SH2 domain” (J Med Chem, 1997)
Where a SMILES comes first, the peptide text is derived from it. [ ]: non-standard residue; d: D form. The star is where a group is joined. pY = N[C@@H](Cc1ccc(OP(=O)(O)O)cc1)C(=O)O; 2Abz = Nc1ccccc1C(=O)O; Cbz = O=C(OCc1ccccc1)*

Target: Growth factor receptor-bound protein 2 (Homo sapiens, UniProt P62993)
Sequence (P62993 whole entry, the tested form may be a part): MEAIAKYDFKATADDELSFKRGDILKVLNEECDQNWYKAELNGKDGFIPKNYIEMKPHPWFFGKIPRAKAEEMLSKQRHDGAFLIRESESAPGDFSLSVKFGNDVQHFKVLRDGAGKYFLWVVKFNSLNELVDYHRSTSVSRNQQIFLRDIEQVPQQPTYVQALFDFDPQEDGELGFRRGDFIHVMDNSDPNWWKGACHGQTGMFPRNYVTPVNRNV
Assay: Inhibition of Grb2-SH2 domain binding to phospho-EGF receptor intracellular C-terminal domain

Row | Compound | IC50 [µM]
1 | CC[C@H](C)[C@H](NC(=O)[C@@H](N)Cc1ccc(OP(=O)(O)O)cc1)C(=O)N[C@@H](CC(N)=O)C(N)=O (H-[pY]-Ile-Asn-NH2) | 56.9
2 | CC[C@H](C)[C@H](NC(=O)[C@H](Cc1ccc(OP(=O)(O)O)cc1)NC(=O)[C@H](CCC(=O)O)NC(=O)c1ccccc1N)C(=O)N[C@@H](CC(N)=O)C(N)=O (H-[2Abz]E[pY]IN-NH2) | 0.022
3 | CC[C@H](C)[C@H](NC(=O)[C@H](Cc1ccc(OP(=O)(O)O)cc1)NC(=O)OCc1ccccc1)C(=O)N[C@@H](CC(N)=O)C(N)=O (Cbz-[pY]-Ile-Asn-NH2) | 6.35
4 | CC[C@H](C)[C@H](NC(=O)[C@H](Cc1ccc(OP(=O)(O)O)cc1)NC(=O)[C@@H](N)CCC(=O)O)C(=O)N[C@@H](CC(N)=O)C(N)=O (H-E[pY]IN-NH2) | 7.9
5 | CC[C@H](C)[C@H](NC(=O)[C@H](Cc1ccc(OP(=O)(O)O)cc1)NC(C)=O)C(=O)N[C@@H](CC(N)=O)C(N)=O (Ac-[pY]-Ile-Asn-NH2) | 8.64
6 | CC[C@H](C)[C@H](NC(=O)[C@H](Cc1ccc(OP(=O)(O)O)cc1)NC(=O)OCc1cccc(N)c1)C(=O)N[C@@H](CC(N)=O)C(N)=O | 0.065
